# From patent US8207402B2, “Nucleotide sequences encoding enzymes in biosynthesis of dihydroartemisinic acid” (National Research Council of Canada, priority 2006, dated 2012)
# Tests used:
# [1] = target: T1, recombinant AaALDH1 (Artemisia annua, UniProt C5I9X1); assay: Characterization of purified recombinant AaALDH1 (kinetic parameters, substrate specificity); assay type: biochemical; conditions: for Km / Vmax: purified recombinant AaALDH1, 50 mM Tris-HCl buffer, pH 8.5, means of three independent experiments; for substrate for the recombinant AaALDH1: optimum assay conditions, substrate concentration at 10 times the estimated Km
# T1 construct: made in house; host or cells: E. coli BL21(DE3)
# T1 sequence (C5I9X1 with tags, fused parts or gaps): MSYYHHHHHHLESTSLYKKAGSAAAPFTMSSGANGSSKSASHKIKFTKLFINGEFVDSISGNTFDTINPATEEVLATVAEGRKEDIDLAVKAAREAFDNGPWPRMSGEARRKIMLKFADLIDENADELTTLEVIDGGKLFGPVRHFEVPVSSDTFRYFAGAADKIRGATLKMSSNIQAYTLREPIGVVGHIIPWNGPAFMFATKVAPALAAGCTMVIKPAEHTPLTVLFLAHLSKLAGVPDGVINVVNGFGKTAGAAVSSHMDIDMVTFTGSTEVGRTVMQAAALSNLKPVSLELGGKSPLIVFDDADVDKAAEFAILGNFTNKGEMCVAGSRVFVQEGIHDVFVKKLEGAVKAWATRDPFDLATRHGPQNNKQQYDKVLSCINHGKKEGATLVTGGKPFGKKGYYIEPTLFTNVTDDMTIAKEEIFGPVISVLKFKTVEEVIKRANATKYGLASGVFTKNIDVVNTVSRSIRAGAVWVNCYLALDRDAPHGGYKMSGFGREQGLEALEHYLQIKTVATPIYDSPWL
# Procedure: Purification of Recombinant AaALDH1
# Cell-free extract of recombinant AaALDH1 was prepared as described above. The cell-free extract was centrifuged at 20,000 g at 4° C. for 15 minutes to remove any remaining insoluble materials before loading onto a His-Trap FF column (Amersham Bioscience, N.J.) equilibrated with binding buffer (20 mM sodium phosphate buffer containing 500 mM NaCl and 20 mM imidazole at pH 7.5). The column was washed with 5 column volume of binding buffer and the recombinant AaALDH1 eluted with elution buffer (20 mM sodium phosphate, 500 mM NaCl, pH 7.5) containing increasing concentration of imidazole in a step-wise fashion. The eluted fractions were concentrated and desalted in centrifugal filter devices (Amicon Ultra—15) (Millipore, Mass.) following manufacturer's protocol. The purity of the recombinant AaALDH1 was checked with SDS gel stained with Rapid Stain (Biosciences, St. Louis, Mo.).
# Characterization of Purified Recombinant AaALDH1
# The linearity of the assay with respect to time and protein concentration was first established and the operational saturation of substrate and cofactor determined. The pH optimum was determined by the standard assay in 50 mM buffer (sodium phosphate, Tris-HCl and CHES) from pH 6.0 to 10.0 at 0.5 unit interval containing 1 mM NADP and 1.5 micrograms of the purified recombinant AaALDH1. Kinetic parameters were determined in 50 mM Tris-HCl buffer, pH 8.5 by varying the concentration of the substrates. Kinetic constants were determined by non-linear regression analysis using GraphPad software (GraphPad Software Inc. San Diego, Calif.) and the results presented are the means of three independent experiments. Substrates specificity was determined at optimum reaction conditions with substrates concentration at 10 times the estimated Km value. Substrates tested include artemisinic aldehyde, (11R)-dihydroartemisinic aldehyde, artemisinic alcohol, dihydroartemisinic alcohol, octanal, nonanal, 2-phenyl propionaldehyde, 3-cyclohexyl propionaldehyde, 2-hexen-1-al, syringaldehyde.
# [2] = target: T2, recombinant His-tagged AaALDH1 (Artemisia annua, UniProt C5I9X1); assay: In vitro cell-free assay of recombinant His-tagged AaALDH1, GC/MS; assay type: biochemical; conditions: E. coli cell-free extract, 1 mM NADP, pH 8.5, 30 minutes at 30° C.
# T2 construct: made in house; host or cells: E. coli BL21(DE3)
# T2 sequence (C5I9X1 with tags, fused parts or gaps): as above
# Procedure: (§1) The plasmid pKT032 or pKT041 was introduced into E. coli strain BL21(DE3) (Novagen) using heat shock at 42° C. The GUS gene (Invitrogen) was cloned into pDEST17 to replace the ccdB gene and the construct pDEST-GUS introduced into the E. coli strain BL21(DE3) was used as a control. Transformants were grown on Luria Broth (LB) and selected on ampicillin (100 μg/mL) at 37° C. for 24 hours. A single colony containing pKT032 or pKT041 was used to inoculate 5 mL of LB liquid medium with ampicillin (LBA) and grown at 37° C. overnight with shaking. The overnight culture was used to inoculate 250 mL of LBA liquid medium and grown at 37° C. with shaking to an OD600 of 0.6 per mL followed by induction with 1 mM IPTG and grown at 30° C. overnight with shaking. Cells were pelleted at 2,000 g at 4° C. for 10 minutes. The pelleted cells were resuspended in 6 mL of lysis buffer consisting of 50 mM sodium phosphate, pH 8.0, 0.1 M NaCl, 20 mM imidazole and 1 mM phenylmethylsufonyl fluoride (PMSF). Cells were lysed with lysozyme (0.2 mg/mL of cells) on ice for 30 minutes followed by sonication on ice with 30s pulse (5×). Protein concentration was determined by Bradford assay (Bio-Rad). The AaDBR1 protein was detected by silver stain on SDS gel and confirmed by Western Blot using Anti-His antibody (Invitrogen). The AaALDH1 protein was detected by Rapid Stain (Bioscience, St. Louis, Mo.) on SDS gel. […]
# [3] = test system: Plasmodium falciparum; conditions: more active than artesunate; cited from earlier work
# [4] = test system: recombinant His-tagged AaDBR1; assay: In vitro cell-free assay of recombinant His-tagged AaDBR1, GC/MS; assay type: biochemical, Artemisia annua; conditions: E. coli cell-free extract, 1 mM NADPH, pH 7.5, 30 minutes at 30° C.
# Procedure: as §1
structure (smiles),measurement,setting,value
CC1=C[C@H]2[C@@H](CC1)[C@H](C)CC[C@H]2[C@@H](C)C(=O)O [dihydroartemisinic acid],Km,[1],8.79 µM
same,Vmax,[1],143.8 pkat/μg protein
CC1=C[C@H]2[C@@H](CC1)[C@H](C)CC[C@H]2[C@@H](C)C=O [(11R)-dihydroartemisinic aldehyde],"product formation by AaALDH1 cell-free extract (GC/MS, FIG. 11)",[2],NADP-dependent formation of dihydroartemisinic acid
same,substrate for the recombinant AaALDH1,[1],found to be a substrate
C[C@H]1[C@H](N2CCS(=O)(=O)CC2)O[C@@H]2O[C@@]3(C)CC[C@H]4[C@H](C)CC[C@@H]1[C@@]24OO3 [Artemisone],activity relative to artesunate,[3],10-30 fold
C=C(C=O)[C@@H]1CC[C@@H](C)[C@@H]2CCC(C)=C[C@@H]21 [artemisinic aldehyde],"product formation by AaDBR1 cell-free extract (GC/MS, FIG. 10)",[4],NADPH-dependent formation of (11S)-dihydroartemisinic aldehyde as the major product
same,substrate for the recombinant AaALDH1,[1],found to be a substrate
same,Km,[1],2.62 µM
same,Vmax,[1],28.6 pkat/μg protein
